Publication PMC11731258, “The structural basis for high-affinity c-di-GMP binding to the GSPII-B domain of the traffic ATPase PilF from Thermus thermophilus” (The Journal of Biological Chemistry, 2024)
Like-named read-outs stand apart in the source and are kept apart here.

Legend:
PilF159-302 L166G = target: T1, PilF159-302 L166G (Thermus thermophilus, UniProt Q5SLC9, L166G); assay: ITC binding to PilF159-302 L166G; conditions: 20 °C
T1 sequence (Q5SLC9 159-302 L166G): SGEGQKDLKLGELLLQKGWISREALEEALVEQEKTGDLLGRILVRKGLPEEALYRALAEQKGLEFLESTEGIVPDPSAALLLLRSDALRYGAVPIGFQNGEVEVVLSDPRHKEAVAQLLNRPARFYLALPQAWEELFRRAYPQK
Procedure: (§1) To assess the ligand-binding capabilities of the various PilF constructs, triplicates of ITC measurements were recorded for each construct. The measurements were carried out using a MicroCal ITC200 (Malvern Panalytical). All ITC experiments were conducted at 20 °C with 50 mM Tris-HCl pH 7.5, 200 mM sodium chloride, 1 mM β-mercaptoethanol as the sample buffer. All protein samples were extensively dialyzed against the sample buffer and the buffer used for dialysis was used to dilute protein and c-di-GMP samples in preparation for the ITC measurements. Each measurement was conducted using the following protocol. In total, 39.8 μl c-di-GMP were titrated to 270 μl protein in 20 separate injections in 180 s intervals with a stirring speed of 750 rpm. After an initial delay of 120 s, the first injection of 0.2 μl c-di-GMP with a duration of 0.4 s was followed by 19 injections of 2 μl with a duration of 4 s. During the measurement, the feedback mode was set to high and the reference power to 11 μcal s^−1. To optimize precision of the measurements, protein and c-di-GMP concentrations were adjusted to the binding capabilities of the respective constructs and ranged from 5 to 200 μM for protein and 50 to 2000 μM for c-di-GMP. All thermograms were processed using Origin 7.0 (OriginLab) using a one-site– or two-site–binding model dependent on the number of expected binding events.

[1] = target: T2, PilF1-889 (full-length PilF) (Thermus thermophilus, UniProt Q5SLC9); assay: ITC c-di-GMP binding to full-length PilF; conditions: 20 °C; for Kd: pH 7.5, two-site model
T2 sequence (Q5SLC9 1-889): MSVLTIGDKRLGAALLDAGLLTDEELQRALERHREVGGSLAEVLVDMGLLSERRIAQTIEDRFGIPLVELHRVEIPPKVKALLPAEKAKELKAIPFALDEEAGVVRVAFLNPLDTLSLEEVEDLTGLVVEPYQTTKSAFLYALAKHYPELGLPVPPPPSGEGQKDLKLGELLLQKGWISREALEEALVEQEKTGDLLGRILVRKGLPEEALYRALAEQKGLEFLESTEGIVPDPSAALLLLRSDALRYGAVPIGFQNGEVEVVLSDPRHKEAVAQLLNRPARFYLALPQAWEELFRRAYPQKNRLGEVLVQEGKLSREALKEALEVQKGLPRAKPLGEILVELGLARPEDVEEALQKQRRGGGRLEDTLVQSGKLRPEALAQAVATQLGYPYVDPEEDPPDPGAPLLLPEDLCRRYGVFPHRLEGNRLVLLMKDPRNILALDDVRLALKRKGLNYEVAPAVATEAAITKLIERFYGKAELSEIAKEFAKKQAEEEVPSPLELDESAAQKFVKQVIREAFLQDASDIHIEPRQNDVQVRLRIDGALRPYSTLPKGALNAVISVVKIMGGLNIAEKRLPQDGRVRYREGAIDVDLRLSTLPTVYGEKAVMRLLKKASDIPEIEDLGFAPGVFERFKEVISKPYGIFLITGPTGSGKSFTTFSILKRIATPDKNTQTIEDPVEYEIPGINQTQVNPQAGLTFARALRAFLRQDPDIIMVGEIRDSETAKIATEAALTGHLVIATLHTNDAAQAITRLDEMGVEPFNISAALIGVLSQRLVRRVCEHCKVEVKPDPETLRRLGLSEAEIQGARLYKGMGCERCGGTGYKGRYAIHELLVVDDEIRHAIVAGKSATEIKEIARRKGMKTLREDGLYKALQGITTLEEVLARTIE
Procedure: as §1

PilF159-302 K167R = target: T3, PilF159-302 K167R (Thermus thermophilus, UniProt Q5SLC9, K167R); assay: ITC binding to PilF159-302 K167R; conditions: 20 °C
T3 sequence (Q5SLC9 159-302 K167R): T1 sequence (Q5SLC9 159-302 L166G)
Procedure: as §1

PilZ domain of PlzD = target: PilZ domain of PlzD; design: method as in PMID 18034161; conditions: cited from earlier work
[2] = target: T4, PilF159-221 (lacking the C-terminal subdomain) (Thermus thermophilus, UniProt Q5SLC9); assay: ITC binding to PilF159-221
T4 sequence (Q5SLC9 159-221): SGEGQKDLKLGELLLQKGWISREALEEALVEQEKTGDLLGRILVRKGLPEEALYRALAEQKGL
Procedure: as §1

SMILES: Nc1nc2c(ncn2[C@@H]2O[C@@H]3COP(=O)(O)O[C@H]4[C@@H](O)[C@H](n5cnc6c(=O)[nH]c(N)nc65)O[C@@H]4COP(=O)(O)O[C@H]3[C@H]2O)c(=O)[nH]1 [c-di-GMP, cyclic dimeric guanosine monophosphate]
- N (PilF159-302 L166G): 0.92 ± 0.10
- ΔH (PilF159-302 L166G): -10.283 ± 0.189 kcal/mol
- ΔS (PilF159-302 L166G): 1.2 ± 3.4 cal/mol/deg
- Kd (PilF159-302 L166G; pH 7.5): 3 nM
- ΔH, site 1 ([1]; Table S1 site 1): -11.763 ± 0.78 kcal/mol
- ΔS, site 1 ([1]; Table S1 site 1): -10.4 ± 2.7 cal/mol/deg
- N, site 1 ([1]; Table S1 site 1 (low affinity)): 0.72 ± 0.10
- ΔH, site 2 ([1]; Table S1 site 2): -15.683 ± 0.97 kcal/mol
- ΔS, site 2 ([1]; Table S1 site 2): -16.5 ± 2.2 cal/mol/deg
- N, site 2 ([1]; Table S1 site 2 (high affinity)): 0.59 ± 0.03
- Kd ([1]; read-out: KD, high-affinity site (KD1 in text and Fig. 1C; site 2 in Table S1)): 10 ± 5 nM
- Kd ([1]; read-out: KD, low-affinity site (KD2 in text and Fig. 1C; site 1 in Table S1)): 324 ± 2 nM
- N (PilF159-302 K167R): 0.79 ± 0.03
- ΔH (PilF159-302 K167R): -10.42 ± 0.552 kcal/mol
- ΔS (PilF159-302 K167R): -4.4 ± 1.9 cal/mol/deg
- Kd (PilF159-302 K167R; pH 7.5): 150 ± 7 nM
- Kd (PilZ domain of PlzD): 100 to 300 nM
- N ([2]; ITC, 20 °C): 1.17 ± 0.02
- ΔH ([2]; ITC, 20 °C): -11.453 ± 0.189 kcal/mol
- ΔS ([2]; ITC, 20 °C): -5.8 ± 0.6 cal/mol/deg
- Kd ([2]; ITC, 20 °C, pH 7.5): 54 ± 3 nM
- fold higher KD than PilF159-302 ([2]; PilF159-302 6 nM): 9 fold
